Test results taken from patent US20110172296A1, “MODULATION OF TRANSFORMING GROWTH FACTOR-BETA 1 EXPRESSION” (priority 2010, published 2011).
pIC50: −log10 of the molar value. Several values for one entry are separate records, joined by “and”; a condition that tells them apart may be missing. Identical values can stand only once. e = 2'-O-(2-methoxyethyl) (MOE); d = 2'-deoxy (DNA)

How the values were obtained:
BALB/c mice [1] = assay: Tolerability in BALB/c mice: liver, kidney and spleen weights (Example 8); assay type: in vivo, mouse
Protocol: The mice were sacrificed 2 days after the last administration and liver, spleen and kidney weights were measured. Plasma transaminase levels were also evaluated.
The weights of liver, kidney and spleen of the mice were measured after 4 weeks and liver weights are presented in Table 10 as a percentage change compared to the corresponding weights in the PBS control. The percentage changes in kidney and spleen weight in the treated mice compared to the PBS control were negligible and are not shown.

human TGF-beta1 mRNA [2] = assay: Dose-dependent confirmation of antisense inhibition of human TGF-beta1 in HuVEC cells after large-scale synthesis, Lipofectamine 2000, 0.007-15 nM (Example 5); assay type: cell-based; conditions: for percent inhibition of TGF-beta1: Lipofectamine 2000
Protocol: Cells were plated at a density of 5,000 cells per well and transfected using Lipofectamine™ 2000 reagent with 0.007 nM, 0.021 nM, 0.062 nM, 0.185 nM, 0.556 nM, 1.667 nM, 5 nM, and 15 nM concentrations of antisense oligonucleotide for 4 hours, as specified in Table 5. After a recovery period of approximately 16 hours, RNA was isolated from the cells and TGF-beta1 mRNA levels were measured by quantitative real-time PCR. Human TGF-beta1 primer probe set RTS 2980 was used to measure mRNA levels. TGF-beta1 mRNA levels were adjusted according to total RNA content, as measured by RIBOGREEN®. Results are presented as percent inhibition of TGF-beta1, relative to untreated control cells.

human TGF-beta1 mRNA [3] = assay: Antisense inhibition of human TGF-beta1 mRNA in HuVEC cells, single 10 nM dose, Lipofectamine 2000 (Example 2); assay type: cell-based
Procedure, shortened: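 Percent inhibition relative to untreated controls, from qRT-PCR of mRNA corrected for total RNA (RIBOGREEN). Cells were exposed 4 h to 10 nM phosphorothioate 2-13-5 MOE gapmers with Lipofectamine 2000 at 5,000 cells/well. RNA was harvested after roughly 24 h recovery.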

BALB/c mice [4] = conditions: mouse, in vivo
Protocol: (§1) These gapmer oligonucleotides were designed to target human TGF-beta1 and have varying degrees of mismatch with murine TGF-beta1 sequence, as shown in Table 1. Oligo ID Nos. 413982 and 414040 have greater than 3 mismatches to the murine TGF-beta1 sequence. Oligo ID No. 414035 has 2 mismatches to murine TGF-beta1. Oligo ID No. 414036 has no mismatches to murine TGF-beta1.
(§2) BALB/c mice were injected with 25 mg/kg or 50 mg/kg of Oligo ID Nos. 413982, 414035, 414036, or 414040 twice a week for 4 weeks. A control group of mice was injected with phosphate buffered saline (PBS) twice a week for 4 weeks. Plasma transaminase levels were evaluated bi-weekly.
(§3) To evaluate the impact of TGF-beta1 antisense oligonucleotides on the hepatic function of mice described above, plasma concentrations of transaminases were measured using an automated clinical chemistry analyzer (Hitachi Olympus AU400e, Melville, N.Y.).

human TGF-beta1 mRNA [5] = assay: Dose-dependent antisense inhibition of human TGF-beta1 in HuVEC cells, Lipofectamine 2000, 0.3292-80 nM, comparison with oligos of U.S. Pat. No. 6,436,909 (Example 4); assay type: cell-based
Protocol: The dose-dependent antisense inhibition potential of these gapmers was compared with that of Oligo IDs 104992 and 1138498 from U.S. Pat. No. 6,436,909. Cells were plated at a density of 5,000 cells per well and transfected using Lipofectamine™ 2000 reagent with 0.3292 nM, 0.9877 nM, 2.963 nM, 8.8889 nM, 26.6667 nM, and 80 nM concentrations of antisense oligonucleotide for 4 hours, as specified in Table 4. After a recovery period of approximately 16 hours, RNA was isolated from the cells and TGF-beta1 mRNA levels were measured by quantitative real-time PCR. Human TGF-beta1 primer probe set RTS 2980 was used to measure mRNA levels. TGF-beta1 mRNA levels were adjusted according to total RNA content, as measured by RIBOGREEN®. Results are presented as percent inhibition of TGF-beta1, relative to untreated control cells. […] All the antisense oligonucleotides in Table 4 target human TGF-beta1 mRNA (SEQ ID NO: 1).

human TGF-beta1 mRNA [6] = assay: Dose-dependent confirmation of antisense inhibition of human TGF-beta1 in HuVEC cells, electroporation (Example 6); assay type: cell-based
Protocol: The gapmers from Example 5 (see Table 5) were also tested at various doses in HuVEC cells using electroporation as the transfection reagent. Cells were plated at a density of 20,000 cells per well and transfected using electroporation with 0.15625 nM, 0.3125 nM, 0.625 nM, 1.25 nM, 2.5 nM, 5 nM, 10 nM, and 20 nM concentrations of antisense oligonucleotide for 4 hours, as specified in Table 6. After a recovery period of approximately 16 hours, RNA was isolated from the cells and TGF-beta1 mRNA levels were measured by quantitative real-time PCR. TGF-beta1 mRNA levels were adjusted according to total RNA content, as measured by RIBOGREEN®. Results are presented as percent inhibition of TGF-beta1, relative to untreated control cells.

human TGF-beta1 mRNA [7] = assay: Dose-dependent antisense inhibition of human TGF-beta1 in HuVEC cells, Lipofectamine 2000, 0.9375-30 nM (Example 3); assay type: cell-based; conditions: Lipofectamine 2000
Protocol: Cells were plated at a density of 5,000 cells per well and transfected using Lipofectamine™ 2000 reagent with 0.9375 nM, 1.875 nM, 3.75 nM, 7.5 nM, 15 nM, and 30 nM concentrations of antisense oligonucleotide for 4 hours, as specified in Table 3. After a recovery period of approximately 16 hours, RNA was isolated from the cells and TGF-beta1 mRNA levels were measured by quantitative real-time PCR. Human TGF-beta1 primer probe set RTS 2980 (forward sequence CTCTCCGACCTGCCACAGA, SEQ ID NO: 160; reverse sequence […], SEQ ID NO: 53; probe sequence CCCTATTCAAGACCACCCACCTTCTGGTX, SEQ ID NO: 161) was used to measure mRNA levels. TGF-beta1 mRNA levels were adjusted according to total RNA content, as measured by RIBOGREEN®. Results are presented as percent inhibition of TGF-beta1, relative to untreated control cells.

BALB/c mice [8] = assay: Tolerability in BALB/c mice: plasma transaminases ALT and AST (Example 7); conditions: for aspartate transaminase levels: plasma
Protocol: as §1, §2, §3

## 105204 (antisense GTCCACCATTAGCACGCGGG; chemistry not given here) [compound 105204]
BALB/c mice [1]; 25 mg/kg twice a week for 4 weeks
  Liver % Weight change relative to PBS control: +28%
BALB/c mice [1]; 50 mg/kg twice a week for 4 weeks
  Liver % Weight change relative to PBS control: +73%
BALB/c mice [1]; 25 or 50 mg/kg twice a week for 4 weeks, vs PBS control
  increase in liver weight: > 70%

## 413982 (antisense GCCTCCGGCTCCCAGCGGCA; sugars from the 5' end e2 d13 e5, backbone and methylation of C not given here) [compound 413982]
Human TGF-beta1 mRNA [2]; 0.007 nM
  percent inhibition of TGF-beta1: 0%
Human TGF-beta1 mRNA [2]; 0.021 nM
  percent inhibition of TGF-beta1: 14%
Human TGF-beta1 mRNA [2]; 0.062 nM
  percent inhibition of TGF-beta1: 31%
Human TGF-beta1 mRNA [2]; 0.185 nM
  percent inhibition of TGF-beta1: 56%
Human TGF-beta1 mRNA [2]; 0.556 nM
  percent inhibition of TGF-beta1: 71%
Human TGF-beta1 mRNA [2]; 1.667 nM
  percent inhibition of TGF-beta1: 79%
Human TGF-beta1 mRNA [2]; 5 nM
  percent inhibition of TGF-beta1: 89%
Human TGF-beta1 mRNA [2]; 15 nM
  percent inhibition of TGF-beta1: 92%
Human TGF-beta1 mRNA [2]; Lipofectamine 2000, Example 5
  pIC50: 9.62
Human TGF-beta1 mRNA [3]; 10 nM oligonucleotide, HuVEC, relative to untreated control cells, gapmers targeted to SEQ ID NO: 1
  % inhibition: 88%
Human TGF-beta1 mRNA [3]; threshold lists of Oligo IDs, 10 nM
  inhibition of a TGF-beta1 mRNA: 60% and 65% and 70% and 75% and 80% and 85%
BALB/c mice [4]
  tolerability compared to Oligo ID 105204: improved tolerability
Human TGF-beta1 mRNA [5]; 0.3292 nM
  percent inhibition of TGF-beta1: 76%
Human TGF-beta1 mRNA [5]; 0.9877 nM
  percent inhibition of TGF-beta1: 87%
Human TGF-beta1 mRNA [5]; 2.963 nM
  percent inhibition of TGF-beta1: 91%
Human TGF-beta1 mRNA [5]; 8.8889 nM
  percent inhibition of TGF-beta1: 95%
Human TGF-beta1 mRNA [5]; 26.6667 nM
  percent inhibition of TGF-beta1: 95%
Human TGF-beta1 mRNA [5]; 80.0 nM
  percent inhibition of TGF-beta1: 93%
Human TGF-beta1 mRNA [6]; 0.15625 nM oligonucleotide
  percent inhibition of TGF-beta1 mRNA relative to untreated control cells: 26%
Human TGF-beta1 mRNA [6]; 0.3125 nM oligonucleotide
  percent inhibition of TGF-beta1 mRNA relative to untreated control cells: 32%
Human TGF-beta1 mRNA [6]; 0.625 nM oligonucleotide
  percent inhibition of TGF-beta1 mRNA relative to untreated control cells: 57%
Human TGF-beta1 mRNA [6]; 1.25 nM oligonucleotide
  percent inhibition of TGF-beta1 mRNA relative to untreated control cells: 79%
Human TGF-beta1 mRNA [6]; 2.5 nM oligonucleotide
  percent inhibition of TGF-beta1 mRNA relative to untreated control cells: 85%
Human TGF-beta1 mRNA [6]; 5.00 nM oligonucleotide
  percent inhibition of TGF-beta1 mRNA relative to untreated control cells: 89%
Human TGF-beta1 mRNA [6]; 10.00 nM oligonucleotide
  percent inhibition of TGF-beta1 mRNA relative to untreated control cells: 93%
Human TGF-beta1 mRNA [6]; 20 nM oligonucleotide
  percent inhibition of TGF-beta1 mRNA relative to untreated control cells: 96%
Human TGF-beta1 mRNA [7]; 0.9375 nM
  percent inhibition of TGF-beta1: 56%
Human TGF-beta1 mRNA [7]; 1.875 nM
  percent inhibition of TGF-beta1: 77%
Human TGF-beta1 mRNA [7]; 3.75 nM
  percent inhibition of TGF-beta1: 88%
Human TGF-beta1 mRNA [7]; 7.5 nM
  percent inhibition of TGF-beta1: 95%
Human TGF-beta1 mRNA [7]; 15 nM
  percent inhibition of TGF-beta1: 96%
Human TGF-beta1 mRNA [7]; 30 nM
  percent inhibition of TGF-beta1: 97%
BALB/c mice [8]; 25 mg/kg twice a week, Week 2
  alanine transaminase levels: 59 IU/L
  aspartate transaminase levels: 74 IU/L
BALB/c mice [8]; 25 mg/kg twice a week, Week 4
  alanine transaminase levels: 140 IU/L
  aspartate transaminase levels: 161 IU/L
BALB/c mice [8]; 50 mg/kg twice a week, Week 2
  alanine transaminase levels: 77 IU/L
  aspartate transaminase levels: 92 IU/L
BALB/c mice [8]; 50 mg/kg twice a week, Week 4
  alanine transaminase levels: 462 IU/L
  aspartate transaminase levels: 460 IU/L
BALB/c mice [8]; 25 or 50 mg/kg twice a week for four weeks
  increase in ALT/AST: < 16 fold
